IC50 data for 87 molecules are collected here from PubChem BioAssay AID2305 (GlaxoSmithKline (GSK), 2010).

Several values for one entry are separate records, joined by “and”; a condition that tells them apart may be missing. Equal entries are not always repeated.

The assay deals with P. falciparum 3D7 growth, pLDH absorbance. The assay can be described thus: blood-stage malaria parasite growth potency – strain 3D7, dose response (AID 2305).
Usually IC50 stands for the point on the concentration scale where inhibition reaches its midpoint. A lower IC50 goes with inhibition by little substance. `COc1cc(C(=O)N2[C@@H](c3nccs3)[C@@H](C(=O)N(OC)C(C)c3ccccc3)C[C@@]2(CC(C)C)C(=O)OC(C)(C)C)ccc1C(C)(C)C` (some centres not stated) returned an IC50 of 1070 nM. The result for `Oc1ccc2[nH]c(-c3ccc(F)cc3F)nc2c1CN1CCC(O)(c2ccccc2)CC1` reads 840 nM; that for `O=C(NCC1CCC(C(=O)NC2CCCc3ccccc32)CC1)c1ccc(O)c(-c2cccc([N+](=O)[O-])c2)c1` (configuration not stated), 940 nM; that for `NS(=O)(=O)c1ccc(CNc2ccc3ncc(-c4ccc(Cl)cc4)n3n2)cc1`, 280 nM. `O=C(NCc1ccc(C(=O)NCc2cccc3ccccc23)cc1)c1ccc(O)c(-c2ccc(Cl)c(Cl)c2)c1` returned an IC50 of 810 nM. The result for `COc1ccc(-c2ccc(NC(=O)c3cccc(F)c3)cc2)cc1CNC(C)C` reads 810 nM. The same measure for `CC(=O)Nc1ccc(S(=O)(=O)N(Cc2cccc(Oc3ccccc3)c2)C2CCN(C/C=C(\C)CCC=C(C)C)CC2)cc1`: 190 nM; for `COc1cccc(-c2cc(C(F)(F)F)n3ncc(C(=O)Nc4cc(Cl)ccc4O)c3n2)c1`: 200 nM; for `CCCCCc1cc(OC(C)=O)c2c(c1)OC(C)(C)C=C2C1=CCN(Cc2ccccc2)CC1`: 930 nM. Molecule `COc1ccc2nccc(NCC3(O)CCC(NCc4cc5c(cn4)OCCO5)CC3)c2n1` (configuration not stated) had an IC50 of 660 nM. `CC(C)(C)c1cc(NC(=O)c2ccc(Cl)c([N+](=O)[O-])c2)cc(C(C)(C)C)c1` had an IC50 of 1030 nM.

In turn, `Cc1cccc(-n2c(=O)c3c4c(sc3n3c(SCCC(C)C)nnc23)CCCC4)c1` showed an IC50 of 760 nM. The result for `Cc1ccc(NC(=O)c2ccc(N3CCN(c4ccncc4)CC3)cc2)cc1F` reads 740 nM.

On to `Cc1cc(NN=Cc2ccccc2F)c2cc(F)ccc2n1`, for which the IC50 came out at 300 nM. The result for `O=C(NCCCCN1CCC(c2ccc3c(c2OC(=O)c2ccc(NC(=O)c4ccc(Cl)cc4)cc2)CCCC3)CC1)c1ccc(NC(=O)c2ccc(Cl)cc2)cc1` reads 200 nM; that for `N=C(N)c1ccc(Nc2nccc(Nc3nc(-c4ccccc4)cs3)n2)cc1`, 750 nM; that for `CN1CCC(COC(=O)C(O)(c2ccccc2)c2ccccc2)C1` (configuration not stated), 1000 nM. With `O=C(NCCCc1ccccc1)c1ccc(O)c(-c2cc(Cl)cc(Cl)c2)c1`, the IC50 turned out to be 570 nM. The result for `O=C(NCc1ccco1)c1ccc(CN2CCN(C(c3ccccc3)c3ccccc3)CC2)cc1` reads 790 nM. Consider `CC(C)c1ccc(NC(=O)NCC2CCCN(CCCCCNC(=O)/C=C/c3ccc(Cl)c(Cl)c3)C2)cc1` (configuration not stated), for which the IC50 was found to be 810 nM. The same measure for `COCC(=O)N(Cc1cccc(-c2ccc(CNCCc3ccccc3)cc2)c1)C1CCN(Cc2ccccc2)CC1`: 1100 nM; for `O=C(Nc1ccsc1)Nc1cccc(-c2ccc(-c3nc4ccc(C(F)(F)F)cc4[nH]3)cc2)c1`: 350 nM; for `COc1cc(F)c2ncc(Cl)c(CCN3CCC(NCc4ccc5c(n4)NC(=O)CO5)CC3)c2c1`: 500 nM. The result for `CC(NC(=O)NC1CCC(CCN2CCCc3ccccc32)CC1)c1cccc2ccccc12` (configuration not stated) reads 1020 nM; that for `CNC(=O)Cc1ccc(C(=O)Nc2cccc(-c3csc(-c4nc5ccccc5[nH]4)c3)c2)cc1`, 270 nM. Molecule `O=S1(=O)NCc2ccc(Nc3nccc(Nc4ccc5c(cnn5Cc5ccccc5)c4)n3)cc21` gave an IC50 of 750 nM. The same measure for `CN(C)c1ccc2nc(N)nc(N)c2c1Cl`: 470 nM; for `O=C(Nc1ccc2ccccc2c1)c1ccc(CN2CCC(Cc3ccccc3)CC2)cc1`: 880 nM; for `COc1ccc(NS(=O)(=O)c2cc(NC(=O)Cn3ccccc3=O)ccc2N2CCCCC2)cc1`: 700 nM. The result for `COc1ccc(-c2cnc(NCc3ccccc3)nc2)cc1CNC1CCN(C)CC1` reads 780 nM. The result for `c1cc(-c2ccc(CN3CCN(c4ccncc4)CC3)cc2)cc(-c2nc3ccccc3[nH]2)c1` reads 140 nM. `COc1ccc(CNCc2cccc(-c3ccc(-c4nc5ccc(C(F)(F)F)cc5[nH]4)cc3)c2)cc1`: the IC50 was determined as 130 nM. Molecule `Cc1cc(-c2cc3nc4c(c(=O)n3[nH]2)CCCC4)c(C)o1` showed an IC50 of 820 nM.

`CCCCCN1CCCN(Cc2cccc(NC(=O)c3ccc(-c4ccccc4)cc3)c2)CC1` returned an IC50 of 700 nM. The result for `O=C(Cc1ccc(F)cc1)NC1CCN(c2ccnc3cc(Cl)ccc23)C1` (configuration not stated) reads 480 nM; that for `S=C(NN=Cc1ccccn1)Nc1ccc(Cl)c(Cl)c1`, 770 nM; that for `CCc1ccc(CN2CCC(CNC(=O)c3cc(-c4ccccc4Cl)cs3)C2)cc1` (configuration not stated), 1430 nM. The same measure for `CO/C(=C\C=C\c1cc2cc(Cl)c(Cl)cc2[nH]1)C(=O)NCCCN1CCN(Cc2ccccc2)CC1`: 910 nM; for `N#Cc1ccc2c(c1)CN(C1CCC(NC(=O)/C=C/c3cc(C(F)(F)F)cc(C(F)(F)F)c3)CC1)CCC2` (configuration not stated): 1390 nM. The result for `Nc1nc(N)c2cc(S(=O)(=O)c3ccc4ccccc4c3)ccc2n1` reads 40 nM; that for `O=C(N[C@@H](Cc1ccccc1)CN1CCC(Oc2ccc(F)cc2)CC1)c1ccc(OCCCN2CCCCC2)cc1`, 890 nM; that for `COc1ccc(CNC(=O)C2Cc3ccccc3CN2Cc2ccc3ccccc3c2)cc1` (configuration not stated), 1100 nM. Molecule `O=C(Nc1ccc(I)cc1)Nc1ccc(Cn2ncc(N3CCCNCC3)c(Cl)c2=O)cc1` returned an IC50 of 1120 nM.

Take `CSc1ccc(CN2CCC(NC(=O)c3ccc(-c4cccc(Cl)c4)s3)CC2)cc1`: the IC50 is 1290 nM. `CC(Cc1ccc(OCCCCOc2ccccc2)cc1)NCCc1ccccc1Cl` (configuration not stated) gave an IC50 of 180 nM. The result for `CSc1cccc(NC(=O)Nc2ccc(I)c(OCCN(C)C)c2)c1` reads 690 nM. The result for `CCNc1cc(C(=O)N[C@@H](Cc2ccccc2)[C@H](O)CNCCc2ccccc2)cc(N2CCCCS2(=O)=O)c1` reads 940 nM. The same measure for `CCCC(=O)c1c(O)c2ccccc2oc1=O`: 260 nM; for `C=Cc1ccccc1C1(O)CCN(CCCCNC(=O)c2ccc(-c3ccc(C#N)cc3)cc2)CC1`: 520 nM. As for `O=C(NCCCCN1CCC(c2ccc3c(c2OCCO)CCCC3)CC1)c1ccc(-c2ccc(C(F)(F)F)cc2)cc1`, the IC50 stood at 860 nM.

Molecule `COC(=O)CCCCCOc1cc(Cc2cnc(N)nc2N)cc(OC)c1OC` displayed an IC50 of 180 nM.

Take `Cc1nc(N)nc(N)c1-c1cccc(Cl)c1`: the IC50 stood at 1170 nM. `Cc1cc(Nc2cccc(C(F)(F)F)c2)nc(N)n1` yielded an IC50 of 790 nM. In turn, `Cc1nc(N)nc(N)c1-c1ccc(Br)cc1` returned an IC50 of 230 nM. The result for `O=C1c2ccccc2C(=O)N1CCOc1c(Br)cc(Br)cc1CNCCCNc1cc(=O)c2ccccc2[nH]1` reads 840 nM; that for `Cc1noc(C)c1-c1cccc(CNCc2ccc(-c3cccc(-c4nc5c(C)cccc5[nH]4)c3)cc2)c1`, 220 nM.

The molecule `CCNc1cc(C(=O)N[C@@H](Cc2ccccc2)[C@H](O)CNCc2cc(OC)cc(OC)c2)cc(N2CCCS2(=O)=O)c1` displayed an IC50 of 40 nM. For `Fc1ccc2nc(-c3ccc(-c4ccc(CNCCN5CCNCC5)cc4)s3)[nH]c2c1`, the IC50 was 780 nM. The result for `O=C(NC=Nc1cc([N+](=O)[O-])c(-c2cccnc2)n1-c1ccc(O)cc1)c1ccccc1` reads 300 nM; that for `CCOC(=O)c1c(C)n(-c2ccccc2)c2ccc(O)cc12`, 470 nM; that for `C=CC[C@H](C[C@H](O)[C@H](Cc1ccccc1)NC(=O)c1ccc(-n2cccn2)cc1)C(=O)NC1CCCCC1`, 810 nM.

In the case of `Nc1nc(N)c(-c2ccccc2)c(=O)[nH]1`, the IC50 came to 1000 nM. The result for `COc1ccc2ncc(F)c(C(O)CN3CCC(NCc4ccc5c(n4)NC(=O)CO5)CC3)c2c1` (configuration not stated) reads 1110 nM and 370 nM; that for `N#Cc1ccc2nc(-c3ccccc3)[nH]c2c1`, 700 nM.

For the molecule `CCCCOc1c(CCNCCCCNCCc2cc(OC)c3ccccc3c2OCCCC)cc(OC)c2ccccc12`, the IC50 stood at 920 nM. In the case of `Cc1[nH]c(C)c(-c2ccc(Oc3ccc(Cl)cc3)cc2)c(=O)c1I`, the IC50 turned out to be 960 nM. For `CNCCN(C)C(=O)Oc1c(Cl)c(C)nc(C)c1-c1ccc(Oc2ccc(OC(F)(F)F)cc2)cc1`, the half-inhibitory concentration (IC50) came out at 130 nM. For `COc1ccc(Nc2ncc(OC)c(Nc3ccccc3C(N)=O)n2)cc1N1CCN(C)CC1`, the IC50 came out at 740 nM. The result for `O=C(NCCCCN1CCC(c2ccc3c(c2OCCCO)CCCC3)CC1)c1ccc(-c2ccc(C(F)(F)F)cc2)cc1` reads 720 nM; that for `Cc1c(S(=O)(=O)Nc2ccc3nccc(N4CCN[C@H](C)C4)c3c2)sc2ccc(Cl)cc12`, 840 nM. The result for `COCC(=O)N(Cc1ccccc1-c1ccc(CNCCc2ccccc2)cc1)C1CCN(Cc2ccccc2)CC1` reads 890 nM; that for `Cc1[nH]c2c(C)cc(NS(C)(=O)=O)cc2c1C1CCN(CC2CCN(C(=O)/C=C/c3ccc(Cl)c(Cl)c3)CC2)CC1`, 240 nM; that for `COc1cccc(Nc2nccc(NCC(O)c3cccc(C(F)(F)F)c3)n2)c1` (configuration not stated), 700 nM.

For `O=C(CCC1CCCCC1=O)c1ccccc1` (configuration not stated), the IC50 worked out at 770 nM. `Clc1ncnc2scc(-c3ccc(Br)cc3)c12` had an IC50 of 890 nM. Molecule `Cc1ccc(-c2nnc(-c3ccc(C(=O)NC4CCN(Cc5ccc(C#N)cc5)CC4)cc3)o2)cc1Br` yielded an IC50 of 850 nM.

The molecule `NC(N)=NCCCCN(Cc1ccccc1)c1ccccc1` came in with an IC50 of 740 nM. The result for `CCCC(C)Nc1nc(C)cc(NCCC(=O)Nc2ccc(OC)cc2)n1` (configuration not stated) reads 1380 nM; that for `CS(=O)(=O)N1CC2(CCN(CCC(NC(=S)Nc3ccccc3)c3ccc(Cl)c(Cl)c3)CC2)c2ccccc21` (configuration not stated), 830 nM. The result for `Cc1cc(-c2cnc(N)c(-c3ccc(N4CCN(C)CC4)cc3)c2)cc(C)c1O` reads 1170 nM; that for `Cc1nc(N)nc(N)c1OCc1ccc(Cl)c(Cl)c1`, 130 nM. The same measure for `O=C(Cn1cc(C(F)(F)F)cc(Cl)c1=O)N1CCN(S(=O)(=O)c2ccc(Cl)cc2)CC1`: 900 nM; for `CCn1ccc2c(N3CCCC3=O)cc(C(=O)N[C@@H](Cc3ccccc3)[C@H](O)CNC(C)(C)CCCC(C)C)cc21`: 350 nM. On to `CCN(CC)CCCNc1nccc(N2CCc3ncnc(Nc4ccc(OCc5cccc(F)c5)c(Cl)c4)c3C2)n1`, for which the IC50 is 110 nM. The result for `Cc1csc2nc(-c3ccccn3)nc(Nc3ccncn3)c12` reads 790 nM; that for `CCOc1cc(Cc2cnc(N)nc2N)cc(Br)c1OC`, 1440 nM.

`Cc1ccc(NC(=O)c2ccc(CN3CCCN(Cc4cccc(O)c4)CC3)cc2)cc1C` showed an IC50 of 860 nM.
